The values that follow come from paper PMC4718143, “A novel protocol for the one-pot borylation/Suzuki reaction provides easy access to hinge-binding groups for kinase inhibitors” (Organic & Biomolecular Chemistry, 2015).

Holding throughout (type): biochemical
In test [1] the target is T1, ABL (Homo sapiens, UniProt P00519).
T1 construct: gene ABL1
The test is described as follows: kinase inhibition IC50 (Invitrogen), following ProfilerPro kinase panel ([…] at […]).

The next test addresses T2, PKD2 (Homo sapiens, UniProt Q9BZL6).
T2 construct: gene PRKD2
T2 sequence (Q9BZL6 1-878): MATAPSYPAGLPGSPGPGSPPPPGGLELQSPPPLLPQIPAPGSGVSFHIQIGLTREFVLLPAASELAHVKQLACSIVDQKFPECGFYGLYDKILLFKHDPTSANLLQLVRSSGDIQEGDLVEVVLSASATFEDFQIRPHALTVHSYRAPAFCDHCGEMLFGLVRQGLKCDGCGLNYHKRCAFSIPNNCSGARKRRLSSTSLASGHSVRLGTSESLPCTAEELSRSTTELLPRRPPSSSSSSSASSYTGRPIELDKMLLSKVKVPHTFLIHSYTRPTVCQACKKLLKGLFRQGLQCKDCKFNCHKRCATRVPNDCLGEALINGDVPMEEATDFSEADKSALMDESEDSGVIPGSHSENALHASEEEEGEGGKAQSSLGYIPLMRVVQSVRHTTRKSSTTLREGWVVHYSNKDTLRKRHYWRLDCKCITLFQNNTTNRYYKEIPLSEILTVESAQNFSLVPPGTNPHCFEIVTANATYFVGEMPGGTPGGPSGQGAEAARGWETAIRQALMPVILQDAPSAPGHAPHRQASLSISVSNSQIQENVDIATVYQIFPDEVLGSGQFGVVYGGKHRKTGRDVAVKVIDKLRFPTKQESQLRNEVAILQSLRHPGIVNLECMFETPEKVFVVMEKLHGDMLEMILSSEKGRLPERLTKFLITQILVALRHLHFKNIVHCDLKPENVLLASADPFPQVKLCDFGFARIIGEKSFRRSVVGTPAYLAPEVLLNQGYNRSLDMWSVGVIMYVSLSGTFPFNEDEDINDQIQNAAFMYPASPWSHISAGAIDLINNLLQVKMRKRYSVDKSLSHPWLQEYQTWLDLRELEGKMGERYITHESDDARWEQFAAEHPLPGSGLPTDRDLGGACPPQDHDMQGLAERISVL
Briefly: ProfilerPro kinase panel, single concentration […].

The target in the next test is T3, CHK2 (Homo sapiens, UniProt O96017).
T3 construct: gene CHEK2
T3 sequence (O96017 whole entry): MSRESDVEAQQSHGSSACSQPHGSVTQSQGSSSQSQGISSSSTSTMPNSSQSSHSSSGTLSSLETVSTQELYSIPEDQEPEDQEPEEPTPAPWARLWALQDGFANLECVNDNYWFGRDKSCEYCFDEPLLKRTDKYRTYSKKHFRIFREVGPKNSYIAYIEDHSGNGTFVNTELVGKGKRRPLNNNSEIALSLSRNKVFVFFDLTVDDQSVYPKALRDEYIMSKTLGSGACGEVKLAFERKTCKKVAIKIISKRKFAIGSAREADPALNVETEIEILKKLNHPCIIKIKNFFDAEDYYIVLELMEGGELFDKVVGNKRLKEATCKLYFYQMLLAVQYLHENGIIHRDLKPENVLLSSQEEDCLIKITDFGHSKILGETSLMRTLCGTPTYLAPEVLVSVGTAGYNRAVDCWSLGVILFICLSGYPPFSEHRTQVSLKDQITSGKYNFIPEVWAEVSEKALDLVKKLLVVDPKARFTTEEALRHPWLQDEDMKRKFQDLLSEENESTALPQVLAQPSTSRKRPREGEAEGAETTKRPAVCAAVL
The test is described as follows: ProfilerPro kinase panel, single concentration […].

Another test concerns the target INSR (Homo sapiens, UniProt P06213). The test is described as follows: ProfilerPro kinase panel, single concentration […].
A further test deals with T4, AurA (Homo sapiens, UniProt O14965).
T4 construct: gene AURKA
T4 sequence (O14965 1-403): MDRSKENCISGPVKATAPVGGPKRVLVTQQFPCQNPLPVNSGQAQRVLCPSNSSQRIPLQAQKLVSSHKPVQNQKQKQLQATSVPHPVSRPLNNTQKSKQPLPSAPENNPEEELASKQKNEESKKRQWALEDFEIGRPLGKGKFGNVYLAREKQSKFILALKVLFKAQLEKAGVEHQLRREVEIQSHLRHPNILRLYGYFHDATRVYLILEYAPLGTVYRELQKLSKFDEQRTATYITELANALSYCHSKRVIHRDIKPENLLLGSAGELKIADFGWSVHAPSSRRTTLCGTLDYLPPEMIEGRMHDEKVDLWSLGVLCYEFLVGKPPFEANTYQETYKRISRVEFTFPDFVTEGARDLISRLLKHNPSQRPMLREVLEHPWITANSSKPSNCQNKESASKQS
The test is described as follows: ProfilerPro kinase panel, single concentration […].

For test [2], the target named is T1, ABL. Briefly: kinase inhibition IC50 (Invitrogen), following ProfilerPro kinase panel ([…] at […]). This is another data set of the same source.
A further test concerns the target T5, RSK1 (Homo sapiens, UniProt Q15418).
T5 construct: gene RPS6KA1
The test is described as follows: ProfilerPro kinase panel, single concentration […].

Each structure is given as a SMILES string. Where two headings read alike, the source gives them in different places.

As a reminder, the IC50 is the concentration needed to halve the response being measured. Read a low IC50 as inhibition by little substance. Broadly, the inhibition is the share of the control response that was lost under treatment. Read a low inhibition as a weak effect.

T1 sequence (P00519 whole entry): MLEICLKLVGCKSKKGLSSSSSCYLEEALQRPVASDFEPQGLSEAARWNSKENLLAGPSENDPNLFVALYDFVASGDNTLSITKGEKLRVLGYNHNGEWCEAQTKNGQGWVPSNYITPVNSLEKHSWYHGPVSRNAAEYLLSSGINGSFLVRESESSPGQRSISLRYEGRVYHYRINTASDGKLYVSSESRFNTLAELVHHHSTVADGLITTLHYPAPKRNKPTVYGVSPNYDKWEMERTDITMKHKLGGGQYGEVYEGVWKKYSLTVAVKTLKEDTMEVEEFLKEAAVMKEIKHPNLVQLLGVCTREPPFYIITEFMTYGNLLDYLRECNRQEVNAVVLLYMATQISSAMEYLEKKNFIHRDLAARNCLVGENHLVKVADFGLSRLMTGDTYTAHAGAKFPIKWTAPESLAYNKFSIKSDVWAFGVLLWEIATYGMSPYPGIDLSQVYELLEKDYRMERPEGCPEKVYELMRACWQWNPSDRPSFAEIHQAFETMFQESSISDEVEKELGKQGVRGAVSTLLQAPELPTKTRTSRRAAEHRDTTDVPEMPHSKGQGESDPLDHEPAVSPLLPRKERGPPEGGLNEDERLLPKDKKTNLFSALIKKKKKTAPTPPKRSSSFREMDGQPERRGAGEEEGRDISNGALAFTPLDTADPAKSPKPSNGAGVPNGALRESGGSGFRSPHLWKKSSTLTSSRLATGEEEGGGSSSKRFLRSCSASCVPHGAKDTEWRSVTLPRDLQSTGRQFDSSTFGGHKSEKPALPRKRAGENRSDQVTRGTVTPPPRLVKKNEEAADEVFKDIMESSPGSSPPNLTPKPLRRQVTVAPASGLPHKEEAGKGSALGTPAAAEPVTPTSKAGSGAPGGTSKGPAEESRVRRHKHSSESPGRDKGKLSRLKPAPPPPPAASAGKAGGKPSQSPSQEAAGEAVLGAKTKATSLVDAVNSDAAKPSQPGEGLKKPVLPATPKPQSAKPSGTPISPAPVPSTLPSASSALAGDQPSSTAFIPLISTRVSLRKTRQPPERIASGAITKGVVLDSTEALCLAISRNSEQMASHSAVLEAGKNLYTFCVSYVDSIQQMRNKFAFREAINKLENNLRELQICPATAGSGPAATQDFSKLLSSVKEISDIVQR
INSR, sequence (P06213 28-758): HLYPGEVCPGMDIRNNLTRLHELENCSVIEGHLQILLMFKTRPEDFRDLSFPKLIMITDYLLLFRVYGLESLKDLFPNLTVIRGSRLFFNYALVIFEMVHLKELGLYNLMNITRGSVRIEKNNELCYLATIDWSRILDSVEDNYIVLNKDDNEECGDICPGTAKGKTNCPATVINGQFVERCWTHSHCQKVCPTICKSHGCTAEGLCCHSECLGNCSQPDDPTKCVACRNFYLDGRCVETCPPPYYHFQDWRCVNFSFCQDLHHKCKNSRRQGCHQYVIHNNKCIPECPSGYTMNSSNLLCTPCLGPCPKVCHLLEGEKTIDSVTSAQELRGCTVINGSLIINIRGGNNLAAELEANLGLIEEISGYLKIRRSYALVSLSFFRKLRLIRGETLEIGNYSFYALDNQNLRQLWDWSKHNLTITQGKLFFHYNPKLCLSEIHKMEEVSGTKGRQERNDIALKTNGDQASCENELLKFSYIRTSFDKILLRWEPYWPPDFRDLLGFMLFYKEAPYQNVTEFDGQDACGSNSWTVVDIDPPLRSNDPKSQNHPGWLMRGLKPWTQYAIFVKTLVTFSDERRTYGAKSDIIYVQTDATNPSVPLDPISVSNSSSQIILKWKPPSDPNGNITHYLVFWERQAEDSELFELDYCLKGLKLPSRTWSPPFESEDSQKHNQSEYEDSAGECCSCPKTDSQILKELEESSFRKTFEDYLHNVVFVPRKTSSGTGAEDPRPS
INSR, sequence (P06213 763-1382): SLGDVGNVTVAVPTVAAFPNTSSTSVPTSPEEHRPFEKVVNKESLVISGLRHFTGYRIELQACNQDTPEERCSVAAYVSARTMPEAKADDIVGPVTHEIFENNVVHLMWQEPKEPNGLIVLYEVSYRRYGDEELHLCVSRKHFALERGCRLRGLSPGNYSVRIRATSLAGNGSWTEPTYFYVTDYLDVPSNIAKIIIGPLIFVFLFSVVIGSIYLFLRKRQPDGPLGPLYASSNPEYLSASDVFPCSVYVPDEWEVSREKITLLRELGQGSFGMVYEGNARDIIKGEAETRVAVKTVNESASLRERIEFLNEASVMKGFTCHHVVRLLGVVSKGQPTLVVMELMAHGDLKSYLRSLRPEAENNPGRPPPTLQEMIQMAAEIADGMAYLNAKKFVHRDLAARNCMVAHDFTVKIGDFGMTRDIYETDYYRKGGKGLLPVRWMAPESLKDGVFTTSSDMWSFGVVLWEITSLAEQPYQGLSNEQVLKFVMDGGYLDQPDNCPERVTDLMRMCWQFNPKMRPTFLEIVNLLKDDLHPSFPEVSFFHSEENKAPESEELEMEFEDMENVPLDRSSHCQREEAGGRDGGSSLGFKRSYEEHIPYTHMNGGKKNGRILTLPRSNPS
T5 sequence (Q15418 whole entry): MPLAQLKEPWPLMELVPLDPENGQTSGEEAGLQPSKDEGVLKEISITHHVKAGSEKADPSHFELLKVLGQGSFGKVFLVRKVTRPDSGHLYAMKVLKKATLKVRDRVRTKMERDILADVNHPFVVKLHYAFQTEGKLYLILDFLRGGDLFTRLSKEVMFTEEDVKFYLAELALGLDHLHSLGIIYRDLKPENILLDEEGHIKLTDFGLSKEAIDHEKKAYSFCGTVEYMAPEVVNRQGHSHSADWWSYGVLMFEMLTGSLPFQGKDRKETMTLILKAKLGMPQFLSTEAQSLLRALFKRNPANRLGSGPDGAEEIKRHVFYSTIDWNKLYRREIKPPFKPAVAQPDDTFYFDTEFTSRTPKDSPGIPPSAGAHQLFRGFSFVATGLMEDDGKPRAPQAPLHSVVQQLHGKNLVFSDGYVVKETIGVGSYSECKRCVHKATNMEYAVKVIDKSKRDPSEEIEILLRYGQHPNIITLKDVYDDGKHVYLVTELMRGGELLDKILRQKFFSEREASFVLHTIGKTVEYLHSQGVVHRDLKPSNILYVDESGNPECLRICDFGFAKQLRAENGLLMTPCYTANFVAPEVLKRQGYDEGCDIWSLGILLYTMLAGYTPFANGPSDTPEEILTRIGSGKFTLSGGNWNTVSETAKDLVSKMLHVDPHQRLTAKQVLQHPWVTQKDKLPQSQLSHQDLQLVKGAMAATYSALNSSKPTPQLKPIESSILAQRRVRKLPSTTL

With `Clc1ccnc2ccc(-c3ccccc3)cc12` [4p], on ABL [1], the IC50 turned out to be 19.2 µM.

As to `c1ccc(-c2cnc3[nH]ccc3c2)cc1` [4n], the inhibition at 300 µM on PKD2 worked out at 92%; against CHK2, 91%; against INSR, 93%; against AurA, 99%.

As to `c1ccc(-c2ccc3ncccc3c2)cc1` [4o], on ABL [2], the IC50 amounted to 8.11 µM. `Clc1ccc(-c2cnc3[nH]ccc3c2)cc1` [4j] showed an inhibition at 300 µM on RSK1 of 91%.
